Measured values from PubChem BioAssay (NCI).
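48-hour exposure; five concentrations; linearly interpolated endpoints. GI50: concentration for 50% inhibition of growth. TGI is the concentration that stops growth completely.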

Key:
Assay in all cases: NCI-60 cell line screen, 48 h
UACC-62 melanoma = test system: UACC-62 melanoma
COLO 205 colon = test system: COLO 205 colon
LOX IMVI melanoma = test system: LOX IMVI melanoma
NCI-H23 lung = test system: NCI-H23 lung
SF-268 CNS = test system: SF-268 CNS
MALME-3M melanoma = test system: MALME-3M melanoma
A549 NSCLC = test system: A549 NSCLC
U251 CNS = test system: U251 CNS
MDA-MB-435 = test system: MDA-MB-435
NCI/ADR-RES ovarian = test system: NCI/ADR-RES ovarian

| SMILES | TGI (UACC-62 melanoma) [µM] | TGI (COLO 205 colon) [µM] | TGI (LOX IMVI melanoma) [µM] | TGI (NCI-H23 lung) [µM] | TGI (SF-268 CNS) [µM] | TGI (MALME-3M melanoma) [µM] | TGI (A549 NSCLC) [µM] | TGI (U251 CNS) [µM] | GI50 (UACC-62 melanoma) [µM] | GI50 (COLO 205 colon) [µM] | GI50 (LOX IMVI melanoma) [µM] | GI50 (NCI-H23 lung) [µM] | GI50 (SF-268 CNS) [µM] | GI50 (MDA-MB-435) [µM] | TGI (MDA-MB-435) [µM] | GI50 (A549 NSCLC) [µM] | GI50 (U251 CNS) [µM] | GI50 (NCI/ADR-RES ovarian) [µM] | TGI (NCI/ADR-RES ovarian) [µM] | GI50 (MALME-3M melanoma) [µM] |
| --- | --- | --- | --- | --- | --- | --- | --- | --- | --- | --- | --- | --- | --- | --- | --- | --- | --- | --- | --- | --- |
| CC(=O)OCC(OC(C)=O)C(OC(C)=O)C(OC(C)=O)C(=O)CNn1c(-c2ccccc2Cl)nc2ccc(Br)cc2c1=O (stereo unspecified) | > 100 | > 100 | > 100 | > 100 | > 100 | > 100 | > 100 | > 100 | – | – | – | – | – | – | – | – | – | – | – | – |
| c1ccc(-c2[nH]c(-c3ccccc3)c(-c3cnccn3)c2-c2cnccn2)cc1 | > 100 | > 100 | > 100 | > 100 | > 100 | > 100 | > 100 | > 100 | – | – | – | – | – | – | – | – | – | – | – | – |
| CCOC(=O)/C(C#N)=C(N)/C(=N\Nc1cccc(C(F)(F)F)c1)C(=O)OCC | > 100 | > 100 | > 100 | > 100 | > 100 | > 100 | > 100 | > 100 | – | – | – | – | – | – | – | – | – | – | – | – |
| O=C(Nc1ccccc1C(=O)O)C(=O)C(C(=O)c1ccccc1-c1ccccc1)C1OC(=O)c2ccccc21 (stereo unspecified) | 35.7 | 47.5 | 38.3 | 40.5 | 39.5 | 28.6 | 81.9 | 28.9 | – | – | – | – | – | – | – | – | – | – | – | – |
| COC(=O)c1nn(C(=N)c2ccc(Cl)cc2)c2c1CCCCC2 | > 100 | > 100 | > 100 | > 100 | > 100 | > 100 | > 100 | > 100 | – | – | – | – | – | – | – | – | – | – | – | – |
| CC(=O)NS(=O)(=O)c1ccc(-n2nc(-c3ccccc3)cc2C2=CC(=O)C=CC2=O)cc1 | > 100 | > 100 | > 100 | > 100 | > 100 | – | > 100 | > 100 | > 100 | > 100 | > 100 | > 100 | > 100 | > 100 | > 100 | > 100 | > 100 | – | – | – |
| CC(=O)O[C@H]1C(=O)[C@@]2(C)C(C(OC(=O)c3ccccc3)[C@]3(O)CC(OC(=O)C(O)C(NC(=O)c4ccccc4)c4ccc(C)cc4)C(C)=C1C3(C)C)[C@]1(OC(C)=O)CO[C@@H]1C[C@@H]2O (stereo partly specified) | 6.51 | 0.407 | 6.75 | 21.8 | > 25 | 10.4 | 21.5 | 0.264 | – | – | – | – | – | – | – | – | – | – | – | – |
| O=c1cccccc1NCCNc1cccccc1=O | > 100 | > 100 | > 100 | > 100 | > 100 | 47.9 | > 100 | > 100 | – | – | – | – | – | – | – | – | – | – | – | – |
| Cn1c(O)c(N=NC(N)=S)c2ccccc21 | > 100 | > 100 | > 100 | > 100 | > 100 | – | > 100 | > 100 | > 100 | 94.9 | 58.5 | > 100 | 62.8 | > 100 | > 100 | 62.6 | 46.7 | 47.4 | > 100 | – |
| N[C@H](C(=O)O)[C@@H](Cl)CC(=O)O | > 100 | > 100 | > 100 | > 100 | > 100 | > 100 | > 100 | > 100 | – | – | – | – | – | – | – | – | – | – | – | – |
| COc1ccc(S(=O)(=O)n2c3ccccc3n3ncc(-c4nnc(C)o4)c23)cc1 | 32.5 | 17.1 | 26.1 | 75.8 | > 74.1 | – | > 100 | > 65.5 | 0.609 | 0.376 | 0.561 | 0.786 | 3.11 | 0.339 | > 100 | 0.768 | 0.473 | 0.391 | > 48.1 | – |
| S=C(Nc1ccccc1)N1CCn2c1nsc2=Nc1ccccc1 | > 100 | > 100 | > 100 | > 100 | > 100 | – | > 100 | > 100 | 45.9 | > 100 | 29.1 | 41.1 | > 100 | > 100 | > 100 | > 100 | 33 | > 100 | > 100 | – |
| CCCNc1cccc(-n2ncc3c(N/N=C/c4ccncc4)ncnc32)c1 | > 25 | > 25 | – | > 25 | > 25 | > 25 | > 25 | > 25 | > 7.76 | > 25 | – | > 25 | 8.24 | 0.757 | > 25 | > 7.61 | 17 | 1.93 | > 25 | > 7.75 |
| CNC(C)Cc1ccc(O)cc1 (stereo unspecified) | > 100 | > 100 | > 100 | > 100 | > 100 | > 100 | > 100 | > 100 | – | – | – | – | – | – | – | – | – | – | – | – |
| COc1cc2c3c(c1OC)Oc1ccc(cc1)CC1c4c(cc(OC)c(OC)c4Oc4ccc(cc4)CC3N(C)CC2)CCN1C (stereo unspecified) | 34.9 | 26.4 | 34.9 | > 100 | 64.5 | 34.5 | 70.4 | 30.8 | – | – | – | – | – | – | – | – | – | – | – | – |
| CC1=NN(C(=O)c2cc(Cl)cc([N+](=O)[O-])c2)C(=O)C1N=Nc1ccccc1C(=O)O (stereo unspecified) | > 100 | > 100 | – | > 100 | > 100 | > 100 | > 100 | > 100 | – | – | – | – | – | – | – | – | – | – | – | – |
| O=C(c1ccccc1)c1ccccc1C(=O)c1ccccc1 | > 100 | > 100 | > 100 | > 100 | > 100 | – | > 100 | > 100 | 29.7 | 79.5 | 46 | 34 | 63.4 | 28.7 | > 100 | 50 | 39.4 | 27.4 | > 100 | – |
| COc1cc(C(=O)C/C(CCC(=O)Nc2ccc(Cl)cc2Cl)=N/Nc2nnc(C)n2N)ccc1O | > 100 | > 100 | > 100 | > 100 | > 100 | > 100 | > 100 | > 100 | – | – | – | – | – | – | – | – | – | – | – | – |
